Patent US9403842B2, “Prasugrel in non-crystalline form and pharmaceutical composition thereof” (ratiopharm GmbH, priority 2009, dated 2016)

Experiment: pH-dependent degradation
Assay type: physicochemical
Conditions: pH values of <3, after just 2 hours
Method: At pH values of <3, degradation of more than 1% is observed after just 2 hours. This restricts the possible excipients used in the production of pharmaceutical formulations.

## CC(=O)Oc1cc2c(s1)CCN(C(C(=O)C1CC1)c1ccccc1F)C2 (stereo not drawn) [prasugrel, 2-acetoxy-5-(α-cyclopropylcarbonyl-2-fluorobenzyl)-4,5,6,7-tetrahydrothieno[3,2-c]pyridine]
  degradation: more than 1%
